From patent publication US6958318B2, “Recombinant bacterial cells for delivery of PNP to tumor cells” (The UAB Research Foundation, priority 1993, dated 2005)
Where “and” joins values, the source holds several entries; their conditions need not be identical. Identical values can stand only once. Entries after “also recorded” stand apart in the source; their conditions may differ. Marks after values point to notes of the source that are not given here.

What was measured:
[1] = tested on: T-84 colon carcinoma cells transfected with E. coli PNP; assay: Toxicity of MeP-dR in T-84 cells transfected with E. coli PNP; type: cell-based, human
Description: Cationic liposome mediated gene transfer was used to transfect T-84 colon carcinoma cells. Briefly, 6 μg of plasmid containing PNP or LacZ was added to 10 μg of a 1:1 molar mixture of DOTMA/DOPE (LipofectinJ (GIBCO/BRL, Gaithersburg, Md.)) in a final volume of 200 μl DMEM/FI2 serum free medium. After a 10 minute incubation at room temperature, the DNA-lipid mixture was added to 500 μl serum free medium and was used to cover the cells within a tray. Four hours later, transfection medium was removed from each well and 2 ml DMEM/FI2 with 10% fetal bovine serum was added.
Forty-eight hours following transfection, fresh medium was added and MeP-dR (1 mg/ml in PBS) was added directly to the cells to achieve the desired final concentrations. Cell viability was measured 5 days following treatment as described for the MeP-dR toxicity study.
After 5 days the cells were removed from each well and the number of dye excluding cells were determined with the aid of a hemacytometer. 30-50% toxicity due to the DOTMA-DOPE transfection protocol is acceptable for cationic liposome mediated gene transfer to T-84 in vitro when performed under optimal conditions.
In an additional experiment, approximately 2×10^5 cells per well were transfected as above using 6 μg of plasmid containing E. coli PNP cDNA. Two days after transfection, varying concentrations of MeP-dR (0, 2, 4, 20, 40 and 160 μM) were added to the wells, and after 5 days the dye excluding cells were counted with the aid of a hemacytometer.
An experiment was also performed in triplicate in which 2×10^5 cells per well were transfected with LacZ or PNP using the protocol described for transfection. Two days after transfection, 16 μM MeP-dR was added to one set of the cultures transfected with PNP and one set of the cultures transfected with LacZ.

16/C-PNP tumors = assay: E. coli PNP-transduced 16/C tumors in B6C3F1 mice; type: in vivo
Description: Transduced 16/C cells were implanted in mice by subcutaneous injection of approximately 10^6 cells harvested from the cultures of stably transduced 16/C cells described above. The mice were examined visibly for tumor growth and those with developing tumors were maintained. To prepare mice for use in the in vivo experiments, the tumors were removed from mice with significant tumor growth and cut into 30-60 mg pieces. One 30-60 mg piece of the tumor was subcutaneously implanted into the subaxillary region of each female B6C3F1 mouse. The tumors were allowed to develop and mice with tumors of 100 mm^3 were used.
Six mice per group with established PNP-transduced 16/C tumors were treated with aqueous control solution, MeP-dR or F-ara AMP, as above. […] (Table III, 16/C-PNP treatment.)

[2] = tested on: D54 parental tumor cells (D54-wt); assay: Wild-type D54 glioma tumors in nude mice; type: in vivo
Description: Female athymic nude mice (nu/nu) were implanted sc with 2×10^7 cells of either D54 parental tumor cells (D54-wt) or D54 tumor cells that had been transduced with the E. coli PNP (D54-PNP). After the tumors had grown to approximately 150 mg, they were treated ip with either vehicle or 67 mg/kg of MeP-dR (IP) once a day for 3 days (days 6, 7 and 8 after implantation). The tumor sizes were measured twice a week after treatment.
A confirmation experiment was set up exactly as described above, except that animals were treated with two doses of MeP-dR (45 and 67 mg/kg) (FIGS. 10 and 11). The results of this experiment were similar (Table V). There were 8 of 10 complete regressions in mice bearing the D54-PNP tumors that were treated with 67 mg/kg of MeP-dR. In 4 mice the tumors subsequently returned and grew. There were still 4 of 10 tumor-free survivors 60 days after the treatment had stopped. […] There were 2 of 10 complete regressions and 3 partial responses. […] The delay in the time required to double twice due to treatment with MeP-dR was 5 to 6 days in the non-transduced tumors and greater than 24 days in transduced tumors. In this experiment, the growth rate of the D54-PNP tumors was considerably slower than it was in the first experiment. There was no change in the growth rate of the D54-wt tumors. The reason for the slow growth rate of the D54-PNP tumors in this experiment is not known. […] (In other words, if a tumor was too small to measure, it was not included in the average size). This means that the overall tumor regressions in the D54 PNP group are actually much more pronounced than they appear in FIGS. 8-11.

D54 glioma tumors = assay: D54 tumors of mixed wild-type and transduced cells (80 to 20); conditions: in vivo
PNP transduced tumors = type: in vivo; conditions: 67 mg/kg ip, qd×3 d
[3] = IP for three days, MeP-dR 100, F-araAMP 500 mg/kg/day

For `Cc1ncnc2c1ncn2[C@H]1C[C@H](O)[C@@H](CO)O1` [MeP-dR, 9-(β-D-2-deoxyerythropentofuranosyl)-6-methylpurine], the “Inhibition of cell growth” value ([1]; 4 μM, 5 days, 6 μg PNP plasmid) was “greater than 80%”, the “Killing after PNP transfection” value ([1]; 16 μM) was “Substantial killing” and the “Killing of cells transfected with E. coli PNP” value ([1]; 160 μM, 5 days) was “killed virtually all of the cells”. The “Complete Regressions/Total” value (16/C-PNP tumors; [3]) was “three of six and 3/6”, the “Day delay (Treated-control)” value (16/C-PNP tumors; [3]) was 5.4 days and the “Nonspecific Deaths/Total” value (16/C-PNP tumors; [3]) was 2/6****. The “Delay in time for three tumor doublings, in words” value (16/C-PNP tumors; p<0.01) was “statistically significant delay”, the “Effect on wild-type D54 tumors, in words” value ([2]; 45 or 67 mg/kg) was “little effect; also recorded: no partial of complete remissions; also recorded: did not affect parental D54 tumor cell growth” and the “Days Delay (T-C)” value ([2]; Table IV, 67 mg/kg) was 7 days. For the same compound, the Doubling time ([2]; Table IV, 67 mg/kg) was 21, the “Nonspecific Deaths/Total” value ([2]; Table IV, 67 mg/kg) was 1/6 and the “Regressions Partial” value ([2]; Table IV, 67 mg/kg) was 0/6. The “Tumor-free Survival” value ([2]; Table IV, 67 mg/kg) was 0/6, the “Regressions Complete” value ([2]; Table IV, 67 mg/kg IP once a day for three days) was 0/6 and the “Days Delay (T-C)” value ([2]; Table V, 45 mg/kg) was 5 days. The Doubling time ([2]; Table V, 45 mg/kg) was 17, the “Nonspecific Deaths/Total” value ([2]; Table V, 45 mg/kg) was 0/10 and the “Regressions Partial” value ([2]; Table V, 45 mg/kg) was 0/10. For the same compound, the “Tumor-free Survival” value ([2]; Table V, 45 mg/kg) was 0/10, the “Regressions Complete” value ([2]; Table V, 45 mg/kg IP once a day for three days) was 0/10 and the “Days Delay (T-C)” value ([2]; Table V, 67 mg/kg) was 6 days. The Doubling time ([2]; Table V, 67 mg/kg) was 18, the “Nonspecific Deaths/Total” value ([2]; Table V, 67 mg/kg) was 0/10 and the “Regressions Partial” value ([2]; Table V, 67 mg/kg) was 0/10. The “Tumor-free Survival” value ([2]; Table V, 67 mg/kg) was 0/10, the “Regressions Complete” value ([2]; Table V, 67 mg/kg IP once a day for three days) was 0/10 and the “Activity against tumors of wild-type and transduced cells at 80 to 20” value (D54 glioma tumors) was “less active”. The “Effect on very large pre-existing PNP transduced tumors (approximately 1 gram)” value (PNP transduced tumors) was “impressive regression”.
